Results from PubChem BioAssay (NCI).
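How tested: cells in 96-well plates exposed to compound for 48 hours at five concentrations. GI50 = concentration required for 50% inhibition of growth. TGI: concentration producing complete growth inhibition.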

Tests used:
Experiment in all cases: NCI anticancer screen, dose series, 48 h
786-0 renal = tested on: 786-0 renal
A498 renal = tested on: A498 renal
A549 NSCLC = tested on: A549 NSCLC
ACHN renal = tested on: ACHN renal
BT-549 breast = tested on: BT-549 breast
CAKI-1 renal = tested on: CAKI-1 renal
CCRF-CEM leukemia = tested on: CCRF-CEM leukemia
COLO 205 colon = tested on: COLO 205 colon
DU-145 prostate = tested on: DU-145 prostate
EKVX NSCLC = tested on: EKVX NSCLC
HCC-2998 colon = tested on: HCC-2998 colon
HCT-116 colon = tested on: HCT-116 colon
HCT-15 colon = tested on: HCT-15 colon
HL-60(TB) leukemia = tested on: HL-60(TB) leukemia
HOP-62 NSCLC = tested on: HOP-62 NSCLC
HOP-92 NSCLC = tested on: HOP-92 NSCLC
HS 578T breast = tested on: HS 578T breast
HT29 colon = tested on: HT29 colon
IGROV1 ovarian = tested on: IGROV1 ovarian
K-562 leukemia = tested on: K-562 leukemia
KM12 colon = tested on: KM12 colon
LOX IMVI melanoma = tested on: LOX IMVI melanoma
M14 melanoma = tested on: M14 melanoma
MALME-3M melanoma = tested on: MALME-3M melanoma
MCF7 breast = tested on: MCF7 breast
MDA-MB-231 breast = tested on: MDA-MB-231 breast
MDA-MB-435 = tested on: MDA-MB-435
MOLT-4 leukemia = tested on: MOLT-4 leukemia
NCI-H226 lung = tested on: NCI-H226 lung
NCI-H23 lung = tested on: NCI-H23 lung
NCI-H460 lung = tested on: NCI-H460 lung
NCI-H522 lung = tested on: NCI-H522 lung
NCI/ADR-RES ovarian = tested on: NCI/ADR-RES ovarian
OVCAR-3 ovarian = tested on: OVCAR-3 ovarian
OVCAR-4 ovarian = tested on: OVCAR-4 ovarian
OVCAR-5 ovarian = tested on: OVCAR-5 ovarian
OVCAR-8 ovarian = tested on: OVCAR-8 ovarian
PC-3 prostate = tested on: PC-3 prostate
RPMI-8226 leukemia = tested on: RPMI-8226 leukemia
RXF 393 renal = tested on: RXF 393 renal
SF-268 CNS = tested on: SF-268 CNS
SF-295 CNS = tested on: SF-295 CNS
SF-539 CNS = tested on: SF-539 CNS
SK-MEL-2 melanoma = tested on: SK-MEL-2 melanoma
SK-MEL-28 melanoma = tested on: SK-MEL-28 melanoma
SK-MEL-5 melanoma = tested on: SK-MEL-5 melanoma
SK-OV-3 ovarian = tested on: SK-OV-3 ovarian
SN12C renal = tested on: SN12C renal
SNB-19 CNS = tested on: SNB-19 CNS
SNB-75 CNS = tested on: SNB-75 CNS
SR leukemia = tested on: SR leukemia
SW-620 colon = tested on: SW-620 colon
T-47D breast = tested on: T-47D breast
TK-10 renal = tested on: TK-10 renal
U251 CNS = tested on: U251 CNS
UACC-257 melanoma = tested on: UACC-257 melanoma
UACC-62 melanoma = tested on: UACC-62 melanoma
UO-31 renal = tested on: UO-31 renal

Molecule `Cc1ccccc1NC(=O)Nc1nc2ccc([N+](=O)[O-])cc2s1` has a GI50 (786-0 renal) of 2.7 µM, a TGI (786-0 renal) of 8.41 µM and a GI50 (A498 renal) of 1.89 µM. The TGI (A498 renal) was 4.41 µM, the GI50 (A549 NSCLC) was 2.17 µM and the TGI (A549 NSCLC) was 5.8 µM. For the same molecule, the GI50 (ACHN renal) was 1.88 µM, the TGI (ACHN renal) was 4.53 µM and the GI50 (BT-549 breast) was 2.18 µM. The TGI (BT-549 breast) was 4.53 µM, the GI50 (CAKI-1 renal) was 1.68 µM and the TGI (CAKI-1 renal) was 4.02 µM. For the same molecule, the GI50 (CCRF-CEM leukemia) was 1.76 µM, the TGI (CCRF-CEM leukemia) was 5.28 µM and the GI50 (COLO 205 colon) was 1.61 µM. It also gave a TGI (COLO 205 colon) of 3.16 µM, a GI50 (DU-145 prostate) of 3.23 µM and a TGI (DU-145 prostate) of 11.2 µM. It also gave a GI50 (EKVX NSCLC) of 2.16 µM, a TGI (EKVX NSCLC) of 6.01 µM and a GI50 (HCC-2998 colon) of 2.29 µM. The TGI (HCC-2998 colon) was 5.38 µM, the GI50 (HCT-116 colon) was 2.24 µM and the TGI (HCT-116 colon) was 5.21 µM. For the same molecule, the GI50 (HCT-15 colon) was 2.12 µM, the TGI (HCT-15 colon) was 5.48 µM and the GI50 (HL-60(TB) leukemia) was 1.79 µM. For the same molecule, the TGI (HL-60(TB) leukemia) was 3.87 µM, the GI50 (HOP-62 NSCLC) was 2.49 µM and the TGI (HOP-62 NSCLC) was 7.01 µM. It also gave a GI50 (HOP-92 NSCLC) of 1.59 µM, a TGI (HOP-92 NSCLC) of 4.19 µM and a GI50 (HS 578T breast) of 2.4 µM. The TGI (HS 578T breast) was 6.64 µM, the GI50 (HT29 colon) was 2.03 µM and the TGI (HT29 colon) was 4.96 µM. For the same molecule, the GI50 (IGROV1 ovarian) was 3.38 µM, the TGI (IGROV1 ovarian) was 13.4 µM and the GI50 (K-562 leukemia) was 1.53 µM. For the same molecule, the TGI (K-562 leukemia) was 4.76 µM, the GI50 (KM12 colon) was 2.49 µM and the TGI (KM12 colon) was 8.57 µM. For the same molecule, the GI50 (LOX IMVI melanoma) was 1.83 µM, the TGI (LOX IMVI melanoma) was 3.53 µM and the GI50 (M14 melanoma) was 2.42 µM. For the same molecule, the TGI (M14 melanoma) was 5.85 µM, the GI50 (MALME-3M melanoma) was 2.1 µM and the TGI (MALME-3M melanoma) was 4.99 µM. For the same molecule, the GI50 (MCF7 breast) was 2.36 µM, the TGI (MCF7 breast) was 6.69 µM and the GI50 (MDA-MB-231 breast) was 2.74 µM. For the same molecule, the TGI (MDA-MB-231 breast) was 8.94 µM, the GI50 (MDA-MB-435) was 2.1 µM and the TGI (MDA-MB-435) was 5.71 µM. It also gave a GI50 (MOLT-4 leukemia) of 1.76 µM, a TGI (MOLT-4 leukemia) of 4.02 µM and a GI50 (NCI-H226 lung) of 2.29 µM. It also gave a TGI (NCI-H226 lung) of 6.21 µM, a GI50 (NCI-H23 lung) of 1.79 µM and a TGI (NCI-H23 lung) of 4.7 µM. For the same molecule, the GI50 (NCI-H460 lung) was 2.31 µM, the TGI (NCI-H460 lung) was 6.24 µM and the GI50 (NCI-H522 lung) was 1.47 µM. It also gave a TGI (NCI-H522 lung) of 4.24 µM, a GI50 (NCI/ADR-RES ovarian) of 2.12 µM and a TGI (NCI/ADR-RES ovarian) of 5.03 µM. It also gave a GI50 (OVCAR-3 ovarian) of 1.84 µM, a TGI (OVCAR-3 ovarian) of 4.33 µM and a GI50 (OVCAR-4 ovarian) of 2.65 µM. For the same molecule, the TGI (OVCAR-4 ovarian) was 9.13 µM, the GI50 (OVCAR-5 ovarian) was 2.98 µM and the TGI (OVCAR-5 ovarian) was 11.3 µM. For the same molecule, the GI50 (OVCAR-8 ovarian) was 2.81 µM, the TGI (OVCAR-8 ovarian) was 9.9 µM and the GI50 (PC-3 prostate) was 1.78 µM. The TGI (PC-3 prostate) was 4.23 µM, the GI50 (RPMI-8226 leukemia) was 1.43 µM and the TGI (RPMI-8226 leukemia) was 3.76 µM. For the same molecule, the GI50 (RXF 393 renal) was 1.89 µM, the TGI (RXF 393 renal) was 4.29 µM and the GI50 (SF-268 CNS) was 3.06 µM. For the same molecule, the TGI (SF-268 CNS) was 9.95 µM, the GI50 (SF-295 CNS) was 1.72 µM and the TGI (SF-295 CNS) was 3.61 µM. The GI50 (SF-539 CNS) was 2.03 µM, the TGI (SF-539 CNS) was 4.43 µM and the GI50 (SK-MEL-2 melanoma) was 1.98 µM. The TGI (SK-MEL-2 melanoma) was 4.49 µM, the GI50 (SK-MEL-28 melanoma) was 2.26 µM and the TGI (SK-MEL-28 melanoma) was 6.29 µM. It also gave a GI50 (SK-MEL-5 melanoma) of 1.59 µM, a TGI (SK-MEL-5 melanoma) of 3.19 µM and a GI50 (SK-OV-3 ovarian) of 2.05 µM. For the same molecule, the TGI (SK-OV-3 ovarian) was 5.43 µM, the GI50 (SN12C renal) was 2.38 µM and the TGI (SN12C renal) was 7.12 µM. It also gave a GI50 (SNB-19 CNS) of 2.72 µM, a TGI (SNB-19 CNS) of 7.77 µM and a GI50 (SNB-75 CNS) of 1.77 µM. It also gave a TGI (SNB-75 CNS) of 4.78 µM, a GI50 (SR leukemia) of 1.73 µM and a TGI (SR leukemia) of 4.11 µM. The GI50 (SW-620 colon) was 2.54 µM, the TGI (SW-620 colon) was 7.86 µM and the GI50 (T-47D breast) was 2.22 µM. It also gave a TGI (T-47D breast) of 6.28 µM, a GI50 (TK-10 renal) of 2.9 µM and a TGI (TK-10 renal) of 7.11 µM. The GI50 (U251 CNS) was 1.77 µM, the TGI (U251 CNS) was 3.67 µM and the GI50 (UACC-257 melanoma) was 1.89 µM. For the same molecule, the TGI (UACC-257 melanoma) was 5.12 µM, the GI50 (UACC-62 melanoma) was 2.46 µM and the TGI (UACC-62 melanoma) was 10.6 µM. It also gave a GI50 (UO-31 renal) of 2.02 µM and a TGI (UO-31 renal) of 6.33 µM.
